Experimental data reported in PMC7203344, “Sirtuin 1 Inhibiting Thiocyanates (S1th)—A New Class of Isotype Selective Inhibitors of NAD^+ Dependent Lysine Deacetylases” (Frontiers in Oncology, 2020).

Legend:
HDAC1 = HDAC1 (Homo sapiens, UniProt Q13547); assay: Homogeneous ZMAL-based fluorescence assay for HDAC1; type: biochemical
Procedure: The inhibition of HDAC1 and 6 by the S1th and PR-619 was determined via the ZMAL-assay according to the same general procedure described for sirtuins (2.2.1). 5 μL substrate (10.5 μM final assay concentration) were mixed with 3 μL of inhibitor in DMSO or DMSO and 10 μL of HDAC solution (concentration adjusted to 15–30% conversion) and filled up to 60 μL with assay buffer (50 mM Tris, 137 mM NaCl, 1 mM MgCl2, 2,7 mM KCl, 1 mg/ml BSA, pH = 8.0). The mixture was incubated at 37°C and 140 rpm for 1.5 h. For the stop solution Trichostatin A (3.3 μM) was used instead of nicotinamide. Fluorescence intensity was measured as described above. An enzyme free blank control and an AMC containing 100% control were performed as well and inhibition was calculated in % in relation to a DMSO control.

Sirt1 = target: T1, Sirt1 (Homo sapiens, UniProt Q96EB6); assay: Fluorescent thermal shift assay (FTSA), Sirt1; type: binding; conditions: inhibitor 100 μM; read-out: Thermal shift assay: Δ Tm of Sirt1
T1 construct: made in house; host or cells: E. coli BL21 Star (DE3)
T1 sequence (Q96EB6 134-747): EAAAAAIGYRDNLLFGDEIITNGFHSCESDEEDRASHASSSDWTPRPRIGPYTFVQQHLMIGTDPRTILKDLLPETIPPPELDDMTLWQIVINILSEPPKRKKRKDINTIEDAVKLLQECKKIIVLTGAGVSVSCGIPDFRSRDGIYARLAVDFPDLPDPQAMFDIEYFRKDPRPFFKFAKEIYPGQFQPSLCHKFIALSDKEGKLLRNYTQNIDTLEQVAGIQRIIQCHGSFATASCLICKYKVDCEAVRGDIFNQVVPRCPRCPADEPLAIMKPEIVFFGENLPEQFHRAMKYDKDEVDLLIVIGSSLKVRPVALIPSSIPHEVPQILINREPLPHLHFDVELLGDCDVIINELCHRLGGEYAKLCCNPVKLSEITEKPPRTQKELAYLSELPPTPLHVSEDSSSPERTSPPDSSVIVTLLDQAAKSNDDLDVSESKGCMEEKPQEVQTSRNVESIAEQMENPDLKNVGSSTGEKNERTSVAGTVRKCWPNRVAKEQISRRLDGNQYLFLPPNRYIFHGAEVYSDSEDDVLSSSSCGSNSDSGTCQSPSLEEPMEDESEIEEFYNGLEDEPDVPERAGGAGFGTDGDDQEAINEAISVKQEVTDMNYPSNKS
Procedure: In a 96-well plate (Hard-Shell® PCR-plates, 96-well, thin-wall, BioRAD, USA) 14 μL Sirt1_134−747 in assay buffer (0.3 mg/mL final assay concentration, 50 mM Tris/HCl, 137 mM NaCl, 2.7 mM KCl, 1 mM MgCL2, pH 8.0) were mixed with 1 μL inhibitor in DMSO (100 μM) or DMSO [final assay concentration 5% (v/v)] as a control and 5 μL SyproOrange (1:100 in assay buffer). The fluorescence intensity was monitored during a constant increase of temperature from 20 to 95°C, 1 K per 20 s, using a real-time-PCR-machine (C1000 TouchTM Thermal Cycler, CFX96TM Real-Time System, BioRAD, USA). Melting temperatures were calculated via GraphPad Prism according to a published procedure ([60]).

MCF7 cells [1] = assay: Cell proliferation assay with MCF7 cells; type: cell-based, human; conditions: concentrations as for HeLa
Procedure: 1.5 × 10^4 cells/well were seeded in 24-well plates and grown in DMEM 10% in presence of DMSO, 20 μM EX-527, 12 μM S1th 13, 20 μM S1th 12, or 30 μM S1th 10. The growth media containing the drugs was replaced every 48 h. Cells were collected and counted at the indicated times starting 24 h after seeding (0, 24, 48, 72, 96, and 120 h). The experiment was performed twice in duplicates.

[2] = system: H3K9ac and p53K382ac in HeLa cells; assay: Analysis of acetylation status in HeLa cells by western blotting; type: cell-based, human; conditions: 48 h; concentrations as in proliferation assay
Procedure: 5 × 10^4 cells were plated in 6-well plates and grown with the conditions and drug concentrations as described for the proliferation assay. Cells were harvested at 48 h and resuspendend in protein loading buffer. After sonication the samples were centrifuged at 14,000 rpm in an Eppendorf microcentrifuge (Eppendorf, DE) and the supernatants were analyzed by western-blot. The following antibodies were used: histone H3 (Cell Signaling #9715), histone H3K9ac (Cell Signaling # C5B11), GAPDH (Cell Signaling #D16H11), p53 (ThermoFisher #PA527822), and p53K382ac (Abcam 75754). Quantification was carried out using imageJ.

MCF7 cells [3] = assay: Colony forming assay with MCF7 cells; type: cell-based, human; conditions: concentrations as for HeLa
Procedure: For colony assays, 50 cells per well were seeded in 6-well plates and grown in the same conditions with the same drug concentrations as for the proliferation assays. In this case, the growth media containing the drugs was replaced every 48 h. After 7–10 days, when isolated colonies were formed, wells were washed with PBS, and cells were fixed with cold methanol for 5 min at RT. Cells were stained with crystal violet for 10 min at RT and washed with H2O. Images were acquired using iBright (Thermo Fisher Scientific, MA, USA). For quantification, cells of each well were resuspended in 10% glacial acetic acid to dissolve crystal violet whose levels were monitored by measuring absorbance at 590 nm. The experiment was performed in duplicates.

Sequence of HDAC1 (Q13547 whole entry, species assumed): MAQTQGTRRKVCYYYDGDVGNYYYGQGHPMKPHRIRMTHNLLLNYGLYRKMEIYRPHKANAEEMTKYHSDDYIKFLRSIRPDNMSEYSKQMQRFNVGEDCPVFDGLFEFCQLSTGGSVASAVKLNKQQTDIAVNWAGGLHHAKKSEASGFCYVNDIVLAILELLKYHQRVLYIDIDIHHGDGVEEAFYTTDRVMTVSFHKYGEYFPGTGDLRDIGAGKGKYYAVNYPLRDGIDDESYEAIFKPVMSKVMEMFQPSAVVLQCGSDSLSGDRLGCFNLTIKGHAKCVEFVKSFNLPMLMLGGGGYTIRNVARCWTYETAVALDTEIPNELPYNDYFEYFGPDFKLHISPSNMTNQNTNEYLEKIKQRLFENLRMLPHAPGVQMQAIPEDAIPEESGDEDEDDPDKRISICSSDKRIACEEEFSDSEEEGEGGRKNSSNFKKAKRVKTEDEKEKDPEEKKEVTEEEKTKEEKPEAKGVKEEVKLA

inhibition at 100 µM (HDAC1) [%] | ΔTm at 100 µM (Sirt1) [°C] | SMILES | residual activity HDAC1 (HDAC1) | cell proliferation of MCF7 cells (MCF7 cells [1]) | H3K9 acetylation in HeLa cells [2] | p53K382 acetylation in HeLa cells [2] | colony forming capabilities of MCF7 cells (MCF7 cells [3])
< 10 | -5.9 | N#CSc1cccc(NC(=O)[C@H]2CC=CC[C@H]2C(=O)O)c1 [S1th 10] | – | most effective | clear effect on acetylation | clear effect on acetylation | slightly decreased
< 10 | -8.1 | CCCCNC(=O)Nc1cccc(SC#N)c1 [S1th 11] | – | – | – | – | –
< 10 | -7.2 | COc1ccc(SC#N)cc1OCC(=O)N(CCC#N)CCC#N [S1th 12] | – | only have a mild effect | clear effect on acetylation | clear effect on acetylation | barely affected
< 10 | -9.6 | N#CSc1cccc(NS(=O)(=O)c2ccc3c(c2)OCCO3)c1 [S1th 13] | – | most effective | clear effect on acetylation | clear effect on acetylation | significantly decreased

SMILES | inhibition at 100 µM (HDAC1) [%] | ΔTm at 100 µM (Sirt1) [°C] | residual activity HDAC1 (HDAC1) | cell proliferation of MCF7 cells (MCF7 cells [1]) | H3K9 acetylation in HeLa cells [2] | p53K382 acetylation in HeLa cells [2] | colony forming capabilities of MCF7 cells (MCF7 cells [3])
N#CSc1cc(SC#N)c(N)nc1N [PR-619, reference compound] | 54 | – | ~ 50% | – | – | – | –
